Experimental data reported in US5817640A (Gensia Pharmaceuticals, priority 1995, dated 1998).

What was measured:
[1] = system: patients undergoing coronary artery bypass graft (CABG) surgery; assay: Incidence of MI and combined clinical outcome by plasma level of AICA riboside, Phase 3; type: in vivo, human
From the text: The data in Table 13 reflect diagnosis of MI by both ECG and CK-MB (as described above with respect to Table 12).

[2] = system: patients undergoing coronary artery bypass graft (CABG) surgery; assay: Transmural and non-transmural myocardial infarction, CK-MB and CK release, clinical outcomes (Phase 2); type: in vivo, human; settings: for Number of patients developing transmural myocardial infarction (new Q-wave and CK-MB ≥ 50 I.U.): placebo 5 of 37; for Number of patients with non-transmural myocardial infarction (CK-MB ≥ 50 I.U.): placebo 17
Description: Creatinine phosphokinase MB band (CK-MB) was obtained every 8 hours for 48 hours and when indicated. Radio-nuclide ventriculography for ejection fraction and wall motion score was done about 14 days post-operation and as close to hospital discharge as possible. Other tests and measurements (e.g., chest x-ray, pulmonary artery wedge pressure (PCWP) were performed when clinically indicated for diagnosis or evaluation of myocardial infarction, or congestive heart failure. Timing and dose of all cardiovascular medications within 48 hours after surgery were recorded. The total dose of all analgesics during the 24-hour post-operative period was recorded. Fluid intake and output (e.g., blood replacement and urine output) were recorded for 48 hours. The type and duration of inotropic support and antiarrhythmic intervention required were recorded through 24 hours after surgery. Two-channel Holter recordings were obtained during 3 periods, the eight hours prior to intubation, from intubation through the end of surgery, and for an additional 24-48 hours after surgery. […] For the diagnosis of myocardial infarction, ECG tracings and CK-MB values were assessed centrally by observers blinded to treatment. The difficulty of weaning the patient from bypass, if any, was compared between placebo and treatment groups by noting need for one or more of the following: pacemaker, return to bypass, balloon pump or use of vasopressors. 4. Clinical Outcome. Outcomes of cardiac death, MI, CHF and life-threatening dysrhythmia were compared. Specific endpoints for analysis were combined into a dichotomous endpoint, i.e., at least one of the four events listed above occurs versus none occurs. Fisher's exact test for small samples was used to compare the rates of clinical outcome between the three treatment groups. […] Blood Chemistry--CPK, CK-MB, uric acid, glucose.

[3] = AICA riboside plasma level <0.25 μg/ml, n=209
[4] = AICA riboside plasma level <0.25 μg/ml, n=211
[5] = plasma level 0.25-2.00 μg/ml, n=83
[6] = plasma level 0.25-2.00 μg/ml, n=89
[7] = plasma level 2.00-3.00 μg/ml, n=114
[8] = plasma level 2.00-3.00 μg/ml, n=116
[9] = plasma level 3.00-4.00 μg/ml, n=44
[10] = plasma level 4.00-5.00 μg/ml, n=61
[11] = plasma level 5.00-6.00 μg/ml, n=49
[12] = plasma level 5.00-6.00 μg/ml, n=50
[13] = 0.05 mg/kg/min, n=41, ICU + 8 HR
[14] = 0.05 mg/kg/min, n=41, ICU + 16 HR
[15] = 0.05 mg/kg/min, n=41, ICU + 32 HR
[16] = 0.05 mg/kg/min, n=41, ICU + 40 HR
[17] = 0.05 mg/kg/min, n=41, ICU + 48 HR
[18] = 0.05 mg/kg/min, n=41, discharge
[19] = 0.10 mg/kg/min, n=35, ICU + 8 HR
[20] = 0.10 mg/kg/min, n=35, ICU + 16 HR
[21] = 0.10 mg/kg/min, n=35, ICU + 32 HR
[22] = 0.10 mg/kg/min, n=35, ICU + 40 HR
[23] = 0.10 mg/kg/min, n=35, ICU + 48 HR
[24] = 0.10 mg/kg/min, n=35, discharge

NC(=O)c1ncn([C@@H]2O[C@H](CO)[C@@H](O)[C@H]2O)c1N [AICA riboside, 5-amino-1-β-D-ribofuranosyl-imidazole-4-carboxamide]
Incidence of myocardial infarction [1, 3]: 4.3%
Myocardial infarction, number of patients [1, 3]: 9 patients
Combined clinical outcome, number of patients [1, 4]: 29 patients
Incidence of combined clinical outcome [1, 4]: 13.7%
Most effective plasma level of AICA riboside ([1]; from Table 13): 3 to 6 µg/mL
Incidence of myocardial infarction [1, 5]: 2.4%
Myocardial infarction, number of patients [1, 5]: 2 patients
Combined clinical outcome, number of patients [1, 6]: 9 patients
Incidence of combined clinical outcome [1, 6]: 10.1%
Incidence of myocardial infarction [1, 7]: 4.4%
Myocardial infarction, number of patients [1, 7]: 5 patients
Combined clinical outcome, number of patients [1, 8]: 11 patients
Incidence of combined clinical outcome [1, 8]: 9.5%
Combined clinical outcome, number of patients [1, 9]: 3 patients
Incidence of combined clinical outcome [1, 9]: 6.8%
Incidence of myocardial infarction [1, 9]: 2.3%
Myocardial infarction, number of patients [1, 9]: 1 patients
Combined clinical outcome, number of patients [1, 10]: 2 patients
Incidence of combined clinical outcome [1, 10]: 3.3%
Myocardial infarction, number of patients [1, 10]: 0 patients
Incidence of myocardial infarction [1, 11]: 4.1%
Myocardial infarction, number of patients [1, 11]: 2 patients
Combined clinical outcome, number of patients [1, 12]: 3 patients
Incidence of combined clinical outcome [1, 12]: 6.0%
Incidence of myocardial infarction ([1]; plasma level >6.00 μg/ml, n=44): 2.3%
Myocardial infarction, number of patients ([1]; plasma level >6.00 μg/ml, n=44): 1 patients
Combined clinical outcome, number of patients ([1]; plasma level >6.00 μg/ml, n=46): 4 patients
Incidence of combined clinical outcome ([1]; plasma level >6.00 μg/ml, n=46): 8.7%
CK, mean baseline ([2]; 0.05 mg/kg/min group, n=41): 89.2 +/- 30.9 U/L
CK-MB, mean baseline ([2]; 0.05 mg/kg/min group, n=41): 0.2 +/- 0.1 U/L
CK-MB, mean change from baseline ([2]; 0.05 mg/kg/min, n=41, 24 HR POST): 23.5 +/- 5.0 U/L
CK, mean change from baseline ([2]; 0.05 mg/kg/min, n=41, ICU + 0): 346.2 +/- 45.3 U/L
CK-MB, mean change from baseline ([2]; 0.05 mg/kg/min, n=41, ICU + 0): 24.5 +/- 2.7 U/L
CK, mean change from baseline [2, 13]: 839.2 +/- 89.3 U/L
CK-MB, mean change from baseline [2, 13]: 37.1 +/- 5.1 U/L
CK, mean change from baseline [2, 14]: 1040.6 +/- 120.3 U/L
CK-MB, mean change from baseline [2, 14]: 30.8 +/- 4.9 U/L
CK, mean change from baseline [2, 15]: 874.7 +/- 126.3 U/L
CK-MB, mean change from baseline [2, 15]: 9.2 +/- 2.5 U/L
CK, mean change from baseline [2, 16]: 806.6 +/- 145.6 U/L
CK-MB, mean change from baseline [2, 16]: 7.7 +/- 2.2 U/L
CK, mean change from baseline [2, 17]: 784.0 +/- 149.9 U/L
CK-MB, mean change from baseline [2, 17]: 3.9 +/- 1.5 U/L
CK, mean change from baseline [2, 18]: 87.8 +/- 46.6 U/L
CK-MB, mean change from baseline [2, 18]: 0.0 +/- 0.1 U/L
Number of patients developing transmural myocardial infarction (new Q-wave and CK-MB ≥ 50 I.U.) ([2]; 0.05 mg/kg/min, n=41, p=0.42): 2 patients
Number of patients with non-transmural myocardial infarction (CK-MB ≥ 50 I.U.) ([2]; 0.05 mg/kg/min, n=41, p=0.10): 13 patients
Incidence of transmural myocardial infarction ([2]; 0.05 mg/kg/min, n=41, placebo […], p=0.42): 4.9%
CK, mean baseline ([2]; 0.10 mg/kg/min group, n=35): 66.6 +/- 11.3 U/L
CK-MB, mean baseline ([2]; 0.10 mg/kg/min group, n=35): 0.1 +/- 0.1 U/L
CK-MB, mean change from baseline ([2]; 0.10 mg/kg/min, n=35, 24 HR POST): 21.1 +/- 5.3 U/L
CK, mean change from baseline ([2]; 0.10 mg/kg/min, n=35, ICU + 0): 386.1 +/- 51.8 U/L
CK-MB, mean change from baseline ([2]; 0.10 mg/kg/min, n=35, ICU + 0): 25.2 +/- 2.3 U/L
CK, mean change from baseline [2, 19]: 869.6 +/- 143.7 U/L
CK-MB, mean change from baseline [2, 19]: 34.3 +/- 6.2 U/L
CK, mean change from baseline [2, 20]: 891.0 +/- 148.3 U/L
CK-MB, mean change from baseline [2, 20]: 25.9 +/- 6.7 U/L
CK, mean change from baseline [2, 21]: 894.0 +/- 142.9 U/L
CK-MB, mean change from baseline [2, 21]: 12.8 +/- 4.5 U/L
CK, mean change from baseline [2, 22]: 641.7 +/- 119.7 U/L
CK-MB, mean change from baseline [2, 22]: 7.1 +/- 3.0 U/L
CK, mean change from baseline [2, 23]: 499.8 +/- 100.5 U/L
CK-MB, mean change from baseline [2, 23]: 3.5 +/- 2.1 U/L
CK, mean change from baseline [2, 24]: 31.9 +/- 22.0 U/L
CK-MB, mean change from baseline [2, 24]: 0.4 +/- 0.4 U/L
Number of patients developing transmural myocardial infarction (new Q-wave and CK-MB ≥ 50 I.U.) ([2]; 0.10 mg/kg/min, n=35, p=0.42): 2 patients
Non-transmural MI, combined treatment groups versus placebo ([2]; 0.05 + 0.1 mg/kg/min combined, p=0.046): statistically significant
Number of patients with non-transmural myocardial infarction (CK-MB ≥ 50 I.U.) ([2]; high dose (0.1 mg/kg/min; Table 6 head prints 0.01), n=35, p=0.10): 8 patients
Incidence of non-transmural myocardial infarction (CK-MB ≥ 50 I.U.) ([2]; high dose (0.1 mg/kg/min; Table 6 head prints 0.01), n=35, placebo 47%, p=0.10): 23.5%
Rate of perioperative infarction, all drug-treated patients vs placebo ([2]; including first 5 which received higher doses, p<0.05): statistically significant reduction
Other outcomes (CHF requiring balloon pump or LVAD, cardiac death, life-threatening arrhythmia) ([2]; three groups, exception patient A39 (intra-aortic balloon pump)): none of the other outcomes being evaluated
Total CK levels compared with placebo; same trend for CK-MB release ([2]; treated groups, across all patients): trend toward a reduction in total CK levels in the treated groups compared with placebo
Reduction in the frequency of post-operative myocardial infarctions ([2]; treatment groups vs placebo, p=0.15, not significant): 64%
